In brackets after ≈: the same amount, converted by molar mass.
Legend:
H. influenzae = experiment: MIC by micro-dilution method, H. influenzae isolates; type: cell-based, Haemophilus influenzae
Experimental: (§1) Susceptibility tests can be used to quantitatively measure the in vitro activity of an antimicrobial agent against a given bacterial isolate. Compounds are tested for in vitro antibacterial activity by a micro-dilution method. Minimal Inhibitory Concentration (MIC) is determined in 96 well microtiter plates utilizing the appropriate broth medium for the observed bacterial isolates. […] The diluted compounds (2 μl/well) are then transferred into sterile, uninoculated medium (0.2 mL) by use of a 96 fixed tip-pipetting station. The inoculum for each bacterial strain is standardized to approximately 5×10^5 CFU/mL by optical comparison to a 0.5 McFarland turbidity standard. The plates are inoculated with 10 μl/well of adjusted bacterial inoculum. The 96 well plates are covered and incubated at 35+/−2° C. for 24 hours in ambient air environment. Following incubation, plate wells are visually examined by Optical Density measurement for the presence of growth (turbidity). The lowest concentration of an antimicrobial agent at which no visible growth occurs is defined as the MIC.
(§2) All in vitro testing follows the guidelines described in the Approved Standards M7-A7 protocol, published by the Clinical Laboratory Standards Institute (CLSI).

MRSA = experiment: MIC by micro-dilution method, MRSA isolates; type: cell-based, Staphylococcus aureus; conditions: compounds of Formula XVI; for MIC MRSA 7662: MRSA isolate 7662; for MIC MRSA 33591: MRSA isolate 33591
Experimental: as §1, §2

SMILES	MIC (H. influenzae; H. influenzae 33929) [µg/mL]	MIC (H. influenzae; H. influenzae 49247) [µg/mL]	MIC MRSA 7662 (MRSA) [µg/mL]	MIC MRSA 33591 (MRSA) [µg/mL]
CCC1OC(=O)C(C)C(=O)C(C)C(OC2OC(C)CC(N(C)C)C2O)C2(C)CC(C)C(=O)C(C)C(OCC(=NOCc3ncc(-c4cccc(N)n4)cn3)CO2)C1(C)O (centres unmarked) [Example 50]	2 (≈ 2.42 µM)	2 (≈ 2.42 µM)	–	–
CCC1OC(=O)C(C)C(=O)C(C)C(OC2OC(C)CC(N(C)C)C2O)C2(C)CC(C)C(=O)C(C)C(OCC(=NOCc3ccc(-c4noc(N)n4)nc3)CO2)C1(C)O (centres unmarked) [Example 62]	2 (≈ 2.45 µM)	2 (≈ 2.45 µM)	–	–
CCC1OC(=O)C(C)C(=O)C(C)C(OC2OC(C)CC(N(C)C)C2O)C2(C)CC(C)C(=NC(C)=O)C(C)C(OCC(=NOCc3ccc(-c4nsc(N)n4)cc3)CO2)C1(C)O (centres unmarked) [Example 48]	2 (≈ 2.29 µM)	–	–	–
CCC1OC(=O)C(C)C(=O)C(C)C(OC2OC(C)CC(N(C)C)C2O)C2(C)CC(C)C(=O)C(C)C(OCC(=NOCc3ccc(-c4coc(N)n4)nc3)CO2)C1(C)O (centres unmarked) [Example 60]	2 (≈ 2.45 µM)	2 (≈ 2.45 µM)	–	–
CCC1OC(=O)C(C)C(=O)C(C)C(OC2OC(C)CC(N(C)C)C2O)C2(C)CC(C)C(=O)C(C)C(OCC(=NOCc3ccc(-c4nc(N)ns4)nc3)CO2)C1(C)O (centres unmarked) [Example 61]	2 (≈ 2.4 µM)	2 (≈ 2.4 µM)	–	–
CCC1OC(=O)C(C)C(=O)C(C)C(OC2OC(C)CC(N(C)C)C2O)C2(C)CC(C)C(=O)C(C)C(OCC(=NOCc3ncc(-c4cccc(N)n4)s3)CO2)C1(C)O (centres unmarked) [Example 63]	2 (≈ 2.4 µM)	1 (≈ 1.2 µM)	–	–
CCC1OC(=O)C(C)C(=O)C(C)C(OC2OC(C)CC(N(C)C)C2O)C2(C)CC(C)C(=O)C(C)C(OCC(=NOCc3ccc(-c4csc(N)n4)cn3)CO2)C1(C)O (centres unmarked) [Example 41]	2 (≈ 2.4 µM)	1 (≈ 1.2 µM)	–	–
CCC1OC(=O)C(C)C(=O)C(C)C(OC2OC(C)CC(N(C)C)C2O)C2(C)CC(C)C(=O)C(C)C(OCC(=NOCc3ccc(-n4nnnc4N)cc3)CO2)C1(C)O (centres unmarked) [Example 46]	2 (≈ 2.45 µM)	2 (≈ 2.45 µM)	–	–
CCC1OC(=O)C(C)C(=O)C(C)C(OC2OC(C)CC(N(C)C)C2O)C2(C)CC(C)C(=O)C(C)C(OCC(=NOCc3ccc(-c4nc(N)cs4)cn3)CO2)C1(C)O (centres unmarked) [Example 32]	2 (≈ 2.4 µM)	2 (≈ 2.4 µM)	–	–
CCC1OC(=O)C(C)C(=O)C(C)C(OC2OC(C)CC(N(C)C)C2O)C2(C)CC(C)C(=O)C(C)C(OCC(=NOCc3noc(-c4cccc(N)n4)n3)CO2)C1(C)O (centres unmarked) [Example 54]	1 (≈ 1.22 µM)	1 (≈ 1.22 µM)	–	–
CCC1OC(=O)C(C)C(=O)C(C)C(OC2OC(C)CC(N(C)C)C2O)C2(C)CC(C)C(=O)C(C)C(OCC(=NOCc3csc(-c4cccc(N)n4)n3)CO2)C1(C)O (centres unmarked) [Example 71]	2 (≈ 2.4 µM)	–	–	–
CCC1OC(=O)C(C)(F)C(=O)C(C)C(OC2OC(C)CC(N(C)C)C2O)C2(C)CC(C)C(=O)C(C)C(OCC(=NOCc3ccc(-c4nc(N)cs4)cn3)CO2)C1(C)O (centres unmarked) [Example 33]	4 (≈ 4.71 µM)	2 (≈ 2.35 µM)	–	–
CCC1OC(=O)C(C)C(=O)C(C)C(OC2OC(C)CC(N(C)C)C2O)C2(C)CC(C)C(=O)C(C)C(OCC(=NOCc3ccc(-c4nc(N)no4)cn3)CO2)C1(C)O (centres unmarked) [Example 45]	2 (≈ 2.45 µM)	1 (≈ 1.22 µM)	–	–
CCC1OC(=O)C(C)C(=O)C(C)C(OC2OC(C)CC(N(C)C)C2O)C2(C)CC(C)C(=NC(C)=O)C(C)C(OCC(=NOCc3coc(-c4cccc(N)n4)n3)CO2)C1(C)O (centres unmarked) [Example 40]	2 (≈ 2.33 µM)	2 (≈ 2.33 µM)	–	–
CCC1OC(=O)C(C)(F)C(=O)C(C)C(OC2OC(C)CC(N(C)C)C2O)C2(C)CC(C)C(=O)C(C)C(OCC(=NOCc3nc(-c4cccc(N)n4)no3)CO2)C1(C)O (centres unmarked) [Example 52]	1 (≈ 1.2 µM)	2 (≈ 2.4 µM)	–	–
CCC1OC(=O)C(C)C(=O)C(C)C(OC2OC(C)CC(N(C)C)C2O)C2(C)CC(C)C(=O)C(C)C(OCC(=NOCc3ccc(-c4nc(N)no4)nc3)CO2)C1(C)O (centres unmarked) [Example 51]	2 (≈ 2.45 µM)	2 (≈ 2.45 µM)	–	–
CCC1OC(=O)C(C)(F)C(=O)C(C)C(OC2OC(C)CC(N(C)C)C2O)C2(C)CC(C)C(=O)C(C)C(OCC(=NOCc3ccc(-n4ccc(N)n4)nc3)CO2)C1(C)O (centres unmarked) [Example 49]	2 (≈ 2.4 µM)	2 (≈ 2.4 µM)	–	–
CCC(=O)N=C1C(C)CC2(C)OCC(=NOCc3ccn(-c4cccc(N)n4)n3)COC(C1C)C(C)(O)C(CC)OC(=O)C(C)(F)C(=O)C(C)C2OC1OC(C)CC(N(C)C)C1O (centres unmarked) [Example 57]	4 (≈ 4.5 µM)	2 (≈ 2.25 µM)	–	–
CCC1OC(=O)C(C)C(=O)C(C)C(OC2OC(C)CC(N(C)C)C2O)C2(C)CC(C)C(=NC(C)=O)C(C)C(OCC(=NOCc3cnc(-c4cccc(N)n4)s3)CO2)C1(C)O (centres unmarked) [Example 37]	4 (≈ 4.58 µM)	2 (≈ 2.29 µM)	–	–

SMILES	MIC (H. influenzae; H. influenzae 33929) [µg/mL]	MIC (H. influenzae; H. influenzae 49247) [µg/mL]	MIC MRSA 7662 (MRSA) [µg/mL]	MIC MRSA 33591 (MRSA) [µg/mL]
CCC1OC(=O)C(C)C(=O)C(C)C(OC2OC(C)CC(N(C)C)C2O)C2(C)CC(C)C(=O)C(C)C(OCC(=NOCc3ncc(-c4cccc(N)n4)s3)CO2)C1(C)O (centres unmarked) [Example 36]	2 (≈ 2.4 µM)	2 (≈ 2.4 µM)	–	–
CCC1OC(=O)C(C)C(=O)C(C)C(OC2OC(C)CC(N(C)C)C2O)C2(C)CC(C)C(=NC(C)=O)C(C)C(OCC(=NOCc3cnc(-c4cccc(N)n4)o3)CO2)C1(C)O (centres unmarked) [Example 70]	2 (≈ 2.33 µM)	2 (≈ 2.33 µM)	–	–
CCC1OC(=O)C(C)(F)C(=O)C(C)C(OC2OC(C)CC(N(C)C)C2O)C2(C)CC(C)C(=O)C(C)C(OCC(=NOCc3cnc(-c4nc(N)ns4)cn3)CO2)C1(C)O (centres unmarked) [Example 64]	2 (≈ 2.35 µM)	1 (≈ 1.17 µM)	–	–
CCC1OC(=O)C(C)(F)C(=O)C(C)C(OC2OC(C)CC(N(C)C)C2O)C2(C)CC(C)C(=O)C(C)C(OCC(=NOCc3ccc(-c4nc(N)no4)cc3)CO2)C1(C)O (centres unmarked) [Example 38]	2 (≈ 2.4 µM)	4 (≈ 4.8 µM)	–	–
CCC1OC(=O)C(C)C(=O)C(C)C(OC2OC(C)CC(N(C)C)C2O)C2(C)CC(C)C(=O)C(C)C(OCC(=NOCc3ccc(-c4nsc(N)n4)cn3)CO2)C1(C)O (centres unmarked) [Example 35]	2 (≈ 2.4 µM)	2 (≈ 2.4 µM)	–	–
CCC1OC(=O)C(C)C(=O)C(C)C(OC2OC(C)CC(N(C)C)C2O)C2(C)CC(C)C(=NC(C)=O)C(C)C(OCC(=NOCc3ccc(-n4nnnc4N)cc3)CO2)C1(C)O (centres unmarked) [Example 47]	2 (≈ 2.33 µM)	–	–	–
CCC1OC(=O)C(C)C(=O)C(C)C(OC2OC(C)CC(N(C)C)C2O)C2(C)CC(C)C(=O)C(C)C(OCC(=NOCc3ccn(-c4cccc(N)n4)n3)CO2)C1(C)O (centres unmarked) [Example 58]	2 (≈ 2.45 µM)	2 (≈ 2.45 µM)	–	–
CCC1OC(=O)C(C)(F)C(=O)C(C)C(OC2OC(C)CC(N(C)C)C2O)C2(C)CC(C)C(=NC(C)=O)C(C)C(OCC(=NOCc3ccn(-c4cccc(N)n4)n3)CO2)C1(C)O (centres unmarked) [Example 59]	2 (≈ 2.29 µM)	2 (≈ 2.29 µM)	–	–
CCC1OC(=O)C(C)C(=O)C(C)C(OC2OC(C)CC(N(C)C)C2O)C2(C)CC(C)C(=O)C(C)C(OCC(=NOCc3cnc(-c4cccc(N)n4)s3)CO2)C1(C)O (centres unmarked) [Example 34]	2 (≈ 2.4 µM)	2 (≈ 2.4 µM)	–	–
CCC1OC(=O)C(C)C(=O)C(C)C(OC2OC(C)CC(N(C)C)C2O)C2(C)CC(C)C(=NC(C)=O)C(C)C(OCC(=NOCc3ccc(-n4ccc(N)n4)cc3Cl)CO2)C1(C)O (centres unmarked) [Example 88]	–	–	8 (≈ 8.99 µM)	8 (≈ 8.99 µM)
CCC(=O)N=C1[C@H](C)C[C@@]2(C)OC/C(=N/OCc3ccc(-c4nccc(N)n4)cn3)CO[C@H]([C@H]1C)[C@](C)(O)[C@@H](CC)OC(=O)[C@@](C)(F)C(=O)[C@H](C)[C@H]2O[C@@H]1O[C@H](C)C[C@H](N(C)C)[C@H]1O [Example 113]	–	–	4 (≈ 4.44 µM)	8 (≈ 8.89 µM)
CCC1OC(=O)C(C)(F)C(=O)C(C)C(OC2OC(C)CC(N(C)C)C2O)C2(C)CC(C)C(=NC(=O)C3CC3)C(C)C(OCC(=NOCc3ccc(-n4ccc(N)n4)cc3)CO2)C1(C)O (centres unmarked) [Example 93]	–	–	8 (≈ 8.9 µM)	8 (≈ 8.9 µM)
CCC(=O)N=C1C(C)CC2(C)OCC(=NOCc3ccc(-n4ccc(N)n4)cc3)COC(C1C)C(C)(O)C(CC)OC(=O)C(C)C(=O)C(C)C2OC1OC(C)CC(N(C)C)C1O (centres unmarked) [Example 83]	–	–	2 (≈ 2.3 µM)	4 (≈ 4.6 µM)
CCC(=O)N=C1C(C)CC2(C)OCC(=NOCc3ccc(-n4ccc(N)n4)cn3)COC(C1C)C(C)(O)C(CC)OC(=O)C(C)(F)C(=O)C(C)C2OC1OC(C)CC(N(C)C)C1O (centres unmarked) [Example 92]	–	–	2 (≈ 2.25 µM)	4 (≈ 4.5 µM)
CCC1OC(=O)C(C)C(=O)C(C)C(OC2OC(C)CC(N(C)C)C2O)C2(C)CC(C)C(=NC(C)=O)C(C)C(OCC(=NOCc3ccc(-n4ccc(N)n4)cc3F)CO2)C1(C)O (centres unmarked) [Example 84]	–	–	8 (≈ 9.16 µM)	8 (≈ 9.16 µM)
CC[C@H]1OC(=O)[C@@](C)(F)C(=O)[C@H](C)[C@@H](O[C@@H]2O[C@H](C)C[C@H](N(C)C)[C@H]2O)[C@@]2(C)C[C@@H](C)C(=NC(=O)C(C)C)[C@H](C)[C@@H](OC/C(=N\OCc3ncc(-c4cccc(N)n4)s3)CO2)[C@]1(C)O [Example 111]	–	–	2 (≈ 2.18 µM)	2 (≈ 2.18 µM)
CCC1OC(=O)C(C)(F)C(=O)C(C)C(OC2OC(C)CC(N(C)C)C2O)C2(C)CC(C)C(=NC(C)=O)C(C)C(OCC(=NOCc3ccc(-n4ccc(N)n4)cc3F)CO2)C1(C)O (centres unmarked) [Example 85]	–	–	4 (≈ 4.49 µM)	8 (≈ 8.98 µM)
CCC(=O)N=C1[C@H](C)C[C@@]2(C)OC/C(=N/OCc3ccc(-c4nsc(N)n4)cc3)CO[C@H]([C@H]1C)[C@](C)(O)[C@@H](CC)OC(=O)[C@@](C)(F)C(=O)[C@H](C)[C@H]2O[C@@H]1O[C@H](C)C[C@H](N(C)C)[C@H]1O [Example 127]	–	–	2.00 (≈ 2.21 µM)	4.00 (≈ 4.42 µM)

Source: US20130165641A1, “6,11-BRIDGED BIARYL MACROLIDES” (Enanta Pharmaceuticals, Inc., priority 2007, published 2013)
